# Assays:
# [1] = Polluted soil experiment (Examples 4 to 7): 1,1,1-trichloroethane concentration in polluted soil by GC-MS
# Source text: (§1) FIG. 4 is a view showing an experiment facility used for effecting the method of decreasing nitrate nitrogen and volatile organic compounds in Example 4. A part (a) of FIG. 4 is a plan view of the experiment facility, and a part (b) of FIG. 4 is a side view thereof.
# (§2) As shown in the part (a) of FIG. 4, the polluted soil 32 is provided approximately at the center of the experiment bath 34 so that it is surrounded by the experiment soil 33.
# (§3) In Example 4, the concrete frame 31 in the form of square measure is a cube of 1 m square having open upper part, and artificial soil prepared by mixing kuroboku soil and loam in equivalent amounts was charged in the experiment bath 34 formed with the concrete frame 31 and allowed to stand outdoors (average temperature: 21° C.) for about 2 months.
# (§4) Then, the surface of the artificial soil formed as described above was dug to form a hole in the form of cylinder having a diameter of 30 cm and a depth of 50 cm, and this hole was re-buried with the polluted soil 32.
# (§5) The polluted soil was obtained by adding experiment materials (containing no nitrogen atom) such as fatty acids and alcohols of the present invention and comparative materials of conventional technologies used for comparison in an amount of 1 wt % to 1.2 ton of soil polluted with 1,1,1-trichloroethane and 1,1-dichloroethylene (containing about 1400 μg/L of […], about 50 μg/L of 1,1-dichloroethylene, by elution test according to Kankoku No. 46), and mixing kuroboku soil and loam in equivalent amounts uniformly.
# (§6) To the polluted soil formed as described above was fed diammonium hydrogen phosphate having a concentration of 100 mg/L as a nutrient salt (nitrogen source) at a ratio of 140 L/day.
# (§7) Under the above-mentioned conditions, the concentrations of 1,1,1-trichloroethane and 1,1-dichloroethylene in the polluted soil 32 were measured by gas chromatograph mass spectrometry 20 days after initiation of the experiment. Soils around the re-buried polluted soil 32 (soils on four corners A to D at a depth of 50 cm in FIG. 4) were sampled, and four-point average values of the total carbon concentration and total nitrogen concentration per soil dried weight were measured.
# (§8) In the method of decreasing nitrate nitrogen and volatile organic compounds in Example 5, the same experiment facility (FIG. 4) as in Example 4 was used. Stearic acid was used as the decreasing agent such as fatty acids, alcohols and the like used in the present invention, and an iron powder having an average particle size of about 15 μm was added simultaneously with this stearic acid, to give polluted soil of compartment No. 1. In polluted soil of compartment No. 2, stearic acid and an aluminum powder having an average particle size of 180 μm were added in the same concentration as the polluted soil of compartment No. 1. The same experiment as in Example 4 was conducted on these polluted soils (compartment Nos. 1, 2).
# (§9) In the method of decreasing nitrate nitrogen and volatile organic compounds in Example 6, the same experiment facility (FIG. 4) as in Example 4 was used. Beef tallow fatty acid was used as the decreasing agent such as fatty acids, alcohols and the like used in the present invention, and a bacteria previously cultured was inoculated to the soil and the same experiment as in Example 4 was conducted.
# (§10) For obtaining the bacteria used in Example 6, 1,1,1-trichloroethane was controlled to 5000 μg/L, 1,1-dichloroethylene was controlled to 5000 μg/L, diammonium hydrogen phosphate was controlled to 800 mg/L and beef tallow fatty acid which was only carbon source was controlled to 0.5 wt % in soil collected at a point of 30 cm depth from the ground surface of agricultural land (tea field), and the medium was cultured at a temperature of 16° C. for 12 days.
# (§11) In the method of decreasing nitrate nitrogen and volatile organic compounds in Example 7, the same experiment facility (FIG. 4) as in Example 4 was used. […]
# [2] = Polluted soil experiment (Examples 4 to 7): 1,1-dichloroethylene concentration in polluted soil by GC-MS
# Source text: as §1, §2, §3, §4, §5, §6, §7, §8, §9, §10, §11
# [3] = Artificial groundwater experiment (Example 2): 800 g hydrogen donor added from artificial well, analysis of sampled groundwater; conditions: 800 g material, nitrate nitrogen solution 40 mg/L added 12 mL/day
# Source text: FIG. 2 is a sectional view showing an artificial groundwater experiment facility used for effecting a groundwater experiment in the method of decreasing nitrate nitrogen and volatile organic compounds in Example 2.
# In the experiment bath 17 surrounded by the concrete block frame 11 in the artificial groundwater experiment facility, the ground surface area of the experiment soil 12 was 18 m^2, and the soil depth was 6.0 m. Under this experiment soil 12, a gravel layer 13 is formed at a thickness of 50 cm. A mixture of kuroboku soil and loam at a ratio of about 6:4 was used as the experiment soil 12.
# In the experiment bath 17, an artificial well 14 constituted of a vinyl chloride tube having a diameter of 20 cm is provided. This artificial well 14 is provided at a position 0.5 m from the inner wall surface at one end of the experiment bath 17 (this inner wall surface is standard position) and has a depth of about 6 m, and reaches to the gravel layer 13. Further, a nitrate nitrogen solution addition piper 16 for adding a nitrate nitrogen solution is buried at a position 2 m from the inner wall surface (standard position) of the experiment bath 17 in the artificial groundwater experiment facility, extending to a position 4 m depth from the ground surface. A measurement water incorporating port 15 communicating to outside is provided on another inner wall surface opposite to the standard surface, one inner wall surface. This measurement water incorporating port 15 is formed at a position 50 cm from the bottom (corresponding to the uppermost part of the gravel layer 13), and provided for sampling measurement water which is groundwater.
# The following experiments were conducted in 12 compartments using the artificial soil experiment facility constituted as described above.
# In each experiment bath 17, a nitrate nitrogen solution of which nitrate nitrogen concentration had been previously controlled to 40 mg/L was added continuously from the end of the nitrate nitrogen solution adding pipe 16 (position 4 m from the ground surface) at a rate of 12 mL/day using a metering pump.
# Under the above-mentioned conditions, movement of artificial groundwater is estimated to about 6.5 m/year. The present inventors have added 800 g of each hydrogen donor from the artificial well 14 in each test district and each comparative district. 30 days after initiation of the test, water was sampled from the measurement water incorporating port 15 formed at a position 50 cm from the bottom (corresponding to the uppermost part of gravel layer), and analyses of the nitrate nitrogen concentration, ammonia nitrogen concentration and total carbon concentration of the collected water were conducted according to JIS methods.
# [4] = Artificial soil experiment (Example 1): materials mixed 1 wt % in kuroboku soil, analysis of water passed through the gravel layer; conditions: water passed through soil with 1 wt % material, nitrate nitrogen solution 90 mg/L added 100 mL/day
# Experimental: FIG. 1 is a sectional view showing an artificial soil experiment facility used for effecting a soil experiment in a method of decreasing nitrate nitrogen and volatile organic compounds in Example 1.
# On each experiment bath 7, nozzles are placed for adding a nitrate nitrogen solution, and these nozzles are communicated with a pipe 6 in which the nitrate nitrogen solution flows.
# The following experiments were conducted using the artificial soil experiment facility constituted as described above.
# In the experiment bath 7, a gravel layer 3 and experiment soil 2 are placed. In each experiment soil 2, a carrot seedling 5 is planted.
# The ground surface area of the experimental bath 7 was 11 m^2, and the soil depth of the experimental soil 2 was 1.4 m. Kuroboku soil was used as the experimental soil 2. Under this experiment soil 2, a gravel layer 3 is formed by placing gravels at a thickness of 20 cm from the bottom.
# In 14 compartments of experiment layers 7, five carrot seedlings having a leaf length of about 14 cm were planted in each compartment, and a nitrate nitrogen solution of which nitrate nitrogen concentration had been previously controlled to 90 mg/L was added continuously at a rate of 100 mL/day using a metering pump. Of 14 compartments of experiment layers 7, in compartments Nos. 1 to 9, experiment materials of the present invention were mixed in soil, and in compartments Nos. 10 to 14, comparative materials were mixed in soil, before experiments.
# The experiment soils 2 in each test district and comparative district were made by uniformly mixing experiment materials (fatty acid, alcohol and the like) and comparative materials (materials used in conventional technologies) in a soil dry weight ratio of 1 wt %, previously.
# In the artificial soil experiment facility constituted as described above, water passed through the gravel layer 3 was collected, and analyses of the nitrate nitrogen concentration, ammonia nitrogen concentration and total carbon concentration after 65 days were conducted according to JIS methods.
# [5] = Example 4, 1 wt % material in polluted soil (about 1400 μg/L initially), diammonium hydrogen phosphate fed
# [6] = Example 4, 1 wt % material in polluted soil (about 50 μg/L initially), diammonium hydrogen phosphate fed
# [7] = Example 7, nutrient salt containing nitrogen not added
molecule,measurement,setting,value
"CCO [Ethanol, reference compound]","1,1,1-trichloroethane concentration after 20 days",[1]; [5],1100 µg/L
same,"1,1-dichloroethylene concentration after 20 days",[2]; [6],19 µg/L
"CC(=O)O [Acetic acid, reference compound]","1,1,1-trichloroethane concentration after 20 days",[1]; [7],1350 µg/L
same,"1,1-dichloroethylene concentration after 20 days",[2]; [7],41 µg/L
"CC(O)C(=O)O (stereo not drawn) [Lactic acid, reference compound]","1,1,1-trichloroethane concentration after 20 days",[1]; [5],870 µg/L
same,"1,1-dichloroethylene concentration after 20 days",[2]; [6],20 µg/L
CCCCCCCCCCCCCCCCCCO [Stearyl alcohol],Nitrate nitrogen concentration after 30 days,[3],4 mg/L
"CO [Methanol, reference compound]","1,1,1-trichloroethane concentration after 20 days",[1]; [7],1330 µg/L
same,"1,1-dichloroethylene concentration after 20 days",[2]; [7],49 µg/L
"OC[C@H]1O[C@@H](O[C@H]2[C@H](O)[C@@H](O)C(O)O[C@@H]2CO)[C@H](O)[C@@H](O)[C@H]1O (stereo partly drawn) [Lactose, reference compound]",Nitrate nitrogen concentration after 65 days,[4],41 mg/L
CCCCCCCCCCCCCCCCCC(=O)O [Stearic acid],Nitrate nitrogen concentration after 65 days,[4],22 mg/L
same,"1,1,1-trichloroethane concentration after 20 days",[1]; [5],820 µg/L
same,"1,1-dichloroethylene concentration after 20 days",[2]; [6],24 µg/L
Myristilate,Nitrate nitrogen concentration after 30 days,[3],9 mg/L
Sorbitan distearate,Nitrate nitrogen concentration after 65 days,[4],14 mg/L
Tetraglyceryl pentastearate,Nitrate nitrogen concentration after 30 days,[3],8 mg/L
CCCCCCCCCCCCCCOC(=O)CCCCCCCCCCCCC [Myristyl myristate],Nitrate nitrogen concentration after 30 days,[3],5 mg/L
CCCCCCCCCCCCCCCCCCNCCCCCCCCCCCCCCCCCC [Distearylamine],"1,1,1-trichloroethane concentration after 20 days",[1]; [7],910 µg/L
same,"1,1-dichloroethylene concentration after 20 days",[2]; [7],24 µg/L
Oleic monoglyceride,"1,1,1-trichloroethane concentration after 20 days",[1]; [5],700 µg/L
same,"1,1-dichloroethylene concentration after 20 days",[2]; [6],19 µg/L
Sorbitan monopalmitate,Nitrate nitrogen concentration after 30 days,[3],5 mg/L
CCCCCCCCCCCCO [lauryl alcohol],Nitrate nitrogen concentration after 65 days,[4],18 mg/L
Polyoxyethylene octylphenyl ether,"1,1,1-trichloroethane concentration after 20 days",[1]; [5],820 µg/L
same,"1,1-dichloroethylene concentration after 20 days",[2]; [6],24 µg/L
"CCCCCCCC/C=C\CCCCCCCC(=O)O [Oleic acid, reference compound]","1,1,1-trichloroethane concentration after 20 days",[1]; [5],690 µg/L
same,"1,1-dichloroethylene concentration after 20 days",[2]; [6],21 µg/L
CC(=O)O.CCCCCCCCCCCCCCCCCCN [Stearylamine acetate],"1,1,1-trichloroethane concentration after 20 days",[1]; [7],900 µg/L
same,"1,1-dichloroethylene concentration after 20 days",[2]; [7],28 µg/L
CCCCCCCCCCCCCCCCCCC(=O)CCCCCCCCCCCCCCCCCC [Distearyl ketone],"1,1,1-trichloroethane concentration after 20 days",[1]; [7],830 µg/L
same,"1,1-dichloroethylene concentration after 20 days",[2]; [7],20 µg/L
CCCCCCCCCCCCCCCCOC(=O)CCCCCCCCCCCCCCC [Cetyl palmitate],Nitrate nitrogen concentration after 65 days,[4],20 mg/L
CCCCCCCCCCCCCCN [Myristylamine],"1,1,1-trichloroethane concentration after 20 days",[1]; [7],940 µg/L
same,"1,1-dichloroethylene concentration after 20 days",[2]; [7],29 µg/L
CCCCCCCCCCCCCCCCCC(=O)O[C@H]1CC[C@@]2(C)C(=CC[C@H]3[C@@H]4CC[C@H]([C@H](C)CCCC(C)C)[C@@]4(C)CC[C@@H]32)C1 [Cholesterol stearate],"1,1,1-trichloroethane concentration after 20 days",[1]; [5],650 µg/L
same,"1,1-dichloroethylene concentration after 20 days",[2]; [6],20 µg/L
CCCCCCCCCCCCCCCCCCCCCCO [Behenyl alcohol],"1,1,1-trichloroethane concentration after 20 days",[1]; [5],920 µg/L
same,"1,1-dichloroethylene concentration after 20 days",[2]; [6],21 µg/L
"CCCCCCCC(=O)O [Caprylic acid, reference compound]","1,1,1-trichloroethane concentration after 20 days",[1]; [5],960 µg/L
same,"1,1-dichloroethylene concentration after 20 days",[2]; [6],16 µg/L
CCCCCCCCCCCCCCCCCC(N)=O [Stearic amide],"1,1,1-trichloroethane concentration after 20 days",[1]; [7],790 µg/L
same,"1,1-dichloroethylene concentration after 20 days",[2]; [7],24 µg/L
